According to ChEMBL document CHEMBL4507292 (2021):

Assays:
[1] = target: Serine/threonine-protein kinase N1 (Homo sapiens) (UniProt Q16512); conditions: Compound concentration 1000.0 nM
[2] = target: Cyclin-dependent kinase 13 (Homo sapiens) (UniProt Q14004); conditions: Compound concentration 1000.0 nM
[3] = target: Homeodomain-interacting protein kinase 3 (Homo sapiens) (UniProt Q9H422); conditions: Compound concentration 1000.0 nM
[4] = target: Ephrin type-B receptor 1 (Homo sapiens) (UniProt P54762); conditions: Compound concentration 1000.0 nM
[5] = target: Mitogen-activated protein kinase 4 (Homo sapiens) (UniProt P31152); conditions: Compound concentration 1000.0 nM
[6] = target: Calcium/calmodulin-dependent protein kinase type 1B (Homo sapiens) (UniProt Q6P2M8); conditions: Compound concentration 1000.0 nM
[7] = target: Mitogen-activated protein kinase kinase kinase 10 (Homo sapiens) (UniProt Q02779); conditions: Compound concentration 1000.0 nM
[8] = target: Tyrosine-protein kinase receptor UFO (Homo sapiens) (UniProt P30530); conditions: Compound concentration 1000.0 nM
[9] = target: Receptor-interacting serine/threonine-protein kinase 4 (Homo sapiens) (UniProt P57078); conditions: Compound concentration 1000.0 nM
[10] = target: Ephrin type-A receptor 6 (Homo sapiens) (UniProt Q9UF33); conditions: Compound concentration 1000.0 nM
[11] = target: Cyclin-dependent kinase 14 (Homo sapiens) (UniProt O94921); conditions: Compound concentration 1000.0 nM
Insulin receptor = Insulin receptor (Homo sapiens, UniProt P06213); conditions: Compound concentration 1000.0 nM
[12] = target: Serine/threonine-protein kinase TAO2 (Homo sapiens) (UniProt Q9UL54); conditions: Compound concentration 1000.0 nM
[13] = target: Serine/threonine-protein kinase TNNI3K (Homo sapiens) (UniProt Q59H18); conditions: Compound concentration 1000.0 nM
[14] = target: Dual specificity protein kinase CLK1 (Homo sapiens) (UniProt P49759); conditions: Compound concentration 1000.0 nM
[15] = target: Activin receptor type-2B (Homo sapiens) (UniProt Q13705); conditions: Compound concentration 1000.0 nM
[16] = target: Serine/threonine-protein kinase Nek10 (Homo sapiens) (UniProt Q6ZWH5); conditions: Compound concentration 1000.0 nM
[17] = target: Serine/threonine-protein kinase VRK2 (Homo sapiens) (UniProt Q86Y07); conditions: Compound concentration 1000.0 nM
[18] = target: Serine/threonine-protein kinase PLK3 (Homo sapiens) (UniProt Q9H4B4); conditions: Compound concentration 1000.0 nM
[19] = system: Tyrosine-protein kinase ABL1 (Homo sapiens), P00519 [F317I]; conditions: Compound concentration 1000.0 nM
[20] = target: Phosphatidylinositol 4-kinase beta (Homo sapiens) (UniProt Q9UBF8); conditions: Compound concentration 1000.0 nM
[21] = target: Serine/threonine-protein kinase Sgk3 (Homo sapiens) (UniProt Q96BR1); conditions: Compound concentration 1000.0 nM
[22] = target: Citron Rho-interacting kinase (Homo sapiens) (UniProt O14578); conditions: Compound concentration 1000.0 nM
[23] = target: Mitogen-activated protein kinase kinase kinase 12 (Homo sapiens) (UniProt Q12852); conditions: Compound concentration 1000.0 nM
[24] = target: Sigma non-opioid intracellular receptor 1 (Homo sapiens, UniProt Q99720); conditions: Compound concentration 10.0 uM
[25] = target: Tyrosine-protein kinase ABL2 (Homo sapiens) (UniProt P42684); conditions: Compound concentration 1000.0 nM
[26] = target: Receptor-interacting serine/threonine-protein kinase 1 (Homo sapiens) (UniProt Q13546); conditions: Compound concentration 1000.0 nM
[27] = target: Serine/threonine-protein kinase NIM1 (Homo sapiens) (UniProt Q8IY84); conditions: Compound concentration 1000.0 nM
[28] = system: Epidermal growth factor receptor (Homo sapiens), P00533 [L858R]; conditions: Compound concentration 1000.0 nM
[29] = target: Serine/threonine-protein kinase PAK 3 (Homo sapiens) (UniProt O75914); conditions: Compound concentration 1000.0 nM
[30] = target: Testis-specific serine/threonine-protein kinase 3 (Homo sapiens) (UniProt Q96PN8); conditions: Compound concentration 1000.0 nM
[31] = target: Serine/threonine-protein kinase MRCK beta (Homo sapiens) (UniProt Q9Y5S2); conditions: Compound concentration 1000.0 nM
[32] = system: Phosphatidylinositol 4,5-bisphosphate 3-kinase catalytic subunit alpha isoform (Homo sapiens), P42336 [I800L]; conditions: Compound concentration 1000.0 nM
[33] = target: Mitotic checkpoint serine/threonine-protein kinase BUB1 (Homo sapiens) (UniProt O43683); conditions: Compound concentration 1000.0 nM
[34] = target: SRSF protein kinase 3 (Homo sapiens) (UniProt Q9UPE1); conditions: Compound concentration 1000.0 nM
[35] = target: Tyrosine-protein kinase Blk (Homo sapiens) (UniProt P51451); conditions: Compound concentration 1000.0 nM
[36] = target: Bone morphogenetic protein receptor type-1B (Homo sapiens) (UniProt O00238); conditions: Compound concentration 1000.0 nM
[37] = target: Calcium-dependent protein kinase 1 (Plasmodium falciparum) (UniProt P62344); conditions: Compound concentration 1000.0 nM
[38] = target: Serine/threonine-protein kinase Nek3 (Homo sapiens) (UniProt P51956); conditions: Compound concentration 1000.0 nM
[39] = target: Macrophage colony-stimulating factor 1 receptor (Homo sapiens) (UniProt P07333); conditions: Compound concentration 1000.0 nM
[40] = target: Discoidin domain-containing receptor 2 (Homo sapiens) (UniProt Q16832); conditions: Compound concentration 1000.0 nM
[41] = target: Ribosomal protein S6 kinase alpha-2 (Homo sapiens) (UniProt Q15349); conditions: Compound concentration 1000.0 nM
[42] = target: Dual specificity tyrosine-phosphorylation-regulated kinase 2 (Homo sapiens) (UniProt Q92630); conditions: Compound concentration 1000.0 nM
[43] = target: Tyrosine-protein kinase ABL1 (Homo sapiens) (UniProt P00519); conditions: Compound concentration 1000.0 nM
[44] = target: Mu-type opioid receptor (Homo sapiens) (UniProt P35372); conditions: Compound concentration 10.0 uM

Sequence of Ephrin type-A receptor 6 (Homo sapiens) (Q9UF33 whole entry): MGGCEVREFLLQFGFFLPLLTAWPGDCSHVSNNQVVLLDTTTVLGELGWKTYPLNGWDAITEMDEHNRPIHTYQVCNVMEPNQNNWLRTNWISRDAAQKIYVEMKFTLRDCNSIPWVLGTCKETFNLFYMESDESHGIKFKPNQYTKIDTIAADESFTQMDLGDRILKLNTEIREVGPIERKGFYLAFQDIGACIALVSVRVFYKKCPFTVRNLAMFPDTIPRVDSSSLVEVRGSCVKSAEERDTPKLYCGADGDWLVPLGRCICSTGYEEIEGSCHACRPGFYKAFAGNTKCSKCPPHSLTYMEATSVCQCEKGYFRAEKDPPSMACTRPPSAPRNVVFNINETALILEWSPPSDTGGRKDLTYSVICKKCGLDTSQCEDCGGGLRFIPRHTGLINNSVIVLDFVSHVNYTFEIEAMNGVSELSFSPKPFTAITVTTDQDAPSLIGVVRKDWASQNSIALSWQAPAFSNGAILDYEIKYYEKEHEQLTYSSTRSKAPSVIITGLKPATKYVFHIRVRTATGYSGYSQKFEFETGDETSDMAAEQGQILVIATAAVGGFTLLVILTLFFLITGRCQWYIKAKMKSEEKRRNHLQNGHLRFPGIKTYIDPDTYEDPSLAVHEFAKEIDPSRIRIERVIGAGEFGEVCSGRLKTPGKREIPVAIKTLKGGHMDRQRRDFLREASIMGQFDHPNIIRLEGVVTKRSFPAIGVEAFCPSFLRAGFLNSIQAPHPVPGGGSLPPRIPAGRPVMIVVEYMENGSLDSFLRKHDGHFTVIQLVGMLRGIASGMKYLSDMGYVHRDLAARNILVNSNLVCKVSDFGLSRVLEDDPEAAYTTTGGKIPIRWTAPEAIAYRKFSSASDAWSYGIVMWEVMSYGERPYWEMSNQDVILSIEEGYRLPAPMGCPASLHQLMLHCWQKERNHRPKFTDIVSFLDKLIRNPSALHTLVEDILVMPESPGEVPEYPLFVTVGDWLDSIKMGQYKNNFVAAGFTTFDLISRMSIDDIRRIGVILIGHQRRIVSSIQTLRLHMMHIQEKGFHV
Sequence of SRSF protein kinase 3 (Homo sapiens) (Q9UPE1 whole entry): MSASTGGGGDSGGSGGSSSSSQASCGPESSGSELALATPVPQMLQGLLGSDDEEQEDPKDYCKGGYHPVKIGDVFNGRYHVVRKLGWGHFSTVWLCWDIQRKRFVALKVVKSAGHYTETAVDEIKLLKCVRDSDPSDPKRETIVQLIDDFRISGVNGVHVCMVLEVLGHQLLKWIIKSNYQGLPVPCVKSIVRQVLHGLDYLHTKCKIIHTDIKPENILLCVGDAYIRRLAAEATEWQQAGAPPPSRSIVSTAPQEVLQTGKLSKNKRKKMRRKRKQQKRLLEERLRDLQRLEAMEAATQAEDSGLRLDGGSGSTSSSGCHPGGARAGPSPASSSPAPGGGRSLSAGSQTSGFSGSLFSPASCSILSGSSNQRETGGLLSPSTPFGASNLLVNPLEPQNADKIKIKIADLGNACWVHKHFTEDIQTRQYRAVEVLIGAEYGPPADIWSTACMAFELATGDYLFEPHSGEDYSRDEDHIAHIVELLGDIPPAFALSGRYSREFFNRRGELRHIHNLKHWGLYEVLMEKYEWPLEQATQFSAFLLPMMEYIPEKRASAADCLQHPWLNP
Sequence of Calcium-dependent protein kinase 1 (Plasmodium falciparum) (P62344 2-524 limits assumed): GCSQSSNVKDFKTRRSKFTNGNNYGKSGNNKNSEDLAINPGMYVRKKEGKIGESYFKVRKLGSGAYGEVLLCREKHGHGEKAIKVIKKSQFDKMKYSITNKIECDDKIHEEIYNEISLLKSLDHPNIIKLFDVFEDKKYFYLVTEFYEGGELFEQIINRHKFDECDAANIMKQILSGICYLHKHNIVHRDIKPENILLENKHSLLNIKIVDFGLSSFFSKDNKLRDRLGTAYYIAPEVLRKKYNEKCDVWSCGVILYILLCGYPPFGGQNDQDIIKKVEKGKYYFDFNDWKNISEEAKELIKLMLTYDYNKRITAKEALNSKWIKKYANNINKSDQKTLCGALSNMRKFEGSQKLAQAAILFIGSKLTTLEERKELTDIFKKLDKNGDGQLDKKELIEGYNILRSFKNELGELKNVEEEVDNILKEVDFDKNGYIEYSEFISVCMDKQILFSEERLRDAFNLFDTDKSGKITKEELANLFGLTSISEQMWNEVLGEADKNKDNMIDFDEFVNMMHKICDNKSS
Sequence of Ephrin type-B receptor 1 (Homo sapiens) (P54762 whole entry): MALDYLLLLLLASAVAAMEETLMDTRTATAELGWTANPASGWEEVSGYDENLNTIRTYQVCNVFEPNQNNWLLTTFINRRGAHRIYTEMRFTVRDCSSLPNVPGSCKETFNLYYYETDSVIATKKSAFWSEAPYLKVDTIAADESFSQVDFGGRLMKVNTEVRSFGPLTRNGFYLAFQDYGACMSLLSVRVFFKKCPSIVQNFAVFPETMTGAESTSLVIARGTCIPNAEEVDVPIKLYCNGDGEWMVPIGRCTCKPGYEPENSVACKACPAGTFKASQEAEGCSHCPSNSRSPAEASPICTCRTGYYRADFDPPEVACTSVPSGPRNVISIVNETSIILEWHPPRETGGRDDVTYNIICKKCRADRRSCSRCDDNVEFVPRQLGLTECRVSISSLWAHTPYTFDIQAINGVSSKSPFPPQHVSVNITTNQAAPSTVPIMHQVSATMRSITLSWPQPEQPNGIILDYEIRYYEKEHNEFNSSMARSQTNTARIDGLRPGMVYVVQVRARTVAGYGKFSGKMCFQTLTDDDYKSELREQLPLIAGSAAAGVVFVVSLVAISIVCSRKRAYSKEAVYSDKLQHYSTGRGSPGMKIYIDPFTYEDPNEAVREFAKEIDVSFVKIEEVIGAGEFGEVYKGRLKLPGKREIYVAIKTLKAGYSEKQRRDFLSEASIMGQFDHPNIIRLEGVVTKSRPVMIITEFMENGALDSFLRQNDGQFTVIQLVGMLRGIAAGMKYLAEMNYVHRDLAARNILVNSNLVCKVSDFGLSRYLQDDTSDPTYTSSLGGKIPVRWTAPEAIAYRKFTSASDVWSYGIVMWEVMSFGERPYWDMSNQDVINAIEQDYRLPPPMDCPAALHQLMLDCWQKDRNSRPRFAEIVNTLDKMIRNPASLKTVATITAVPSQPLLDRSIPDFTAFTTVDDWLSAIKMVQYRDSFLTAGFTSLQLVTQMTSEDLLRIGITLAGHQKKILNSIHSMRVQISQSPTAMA
Sequence of Bone morphogenetic protein receptor type-1B (Homo sapiens) (O00238 whole entry): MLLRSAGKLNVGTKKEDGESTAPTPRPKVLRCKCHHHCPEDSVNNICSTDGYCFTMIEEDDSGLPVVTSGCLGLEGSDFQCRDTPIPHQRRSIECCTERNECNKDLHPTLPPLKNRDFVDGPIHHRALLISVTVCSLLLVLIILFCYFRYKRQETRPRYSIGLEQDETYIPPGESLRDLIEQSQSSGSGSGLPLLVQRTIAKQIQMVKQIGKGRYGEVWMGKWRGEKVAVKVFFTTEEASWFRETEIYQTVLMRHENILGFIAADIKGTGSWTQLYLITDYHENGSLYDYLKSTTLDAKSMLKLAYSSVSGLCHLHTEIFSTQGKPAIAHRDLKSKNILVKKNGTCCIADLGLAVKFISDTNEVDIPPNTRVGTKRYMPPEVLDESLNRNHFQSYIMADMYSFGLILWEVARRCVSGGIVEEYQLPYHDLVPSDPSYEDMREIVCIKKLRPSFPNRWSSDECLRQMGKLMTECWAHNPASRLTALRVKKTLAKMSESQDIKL
Sequence of Mitogen-activated protein kinase kinase kinase 10 (Homo sapiens) (Q02779 whole entry, looked up): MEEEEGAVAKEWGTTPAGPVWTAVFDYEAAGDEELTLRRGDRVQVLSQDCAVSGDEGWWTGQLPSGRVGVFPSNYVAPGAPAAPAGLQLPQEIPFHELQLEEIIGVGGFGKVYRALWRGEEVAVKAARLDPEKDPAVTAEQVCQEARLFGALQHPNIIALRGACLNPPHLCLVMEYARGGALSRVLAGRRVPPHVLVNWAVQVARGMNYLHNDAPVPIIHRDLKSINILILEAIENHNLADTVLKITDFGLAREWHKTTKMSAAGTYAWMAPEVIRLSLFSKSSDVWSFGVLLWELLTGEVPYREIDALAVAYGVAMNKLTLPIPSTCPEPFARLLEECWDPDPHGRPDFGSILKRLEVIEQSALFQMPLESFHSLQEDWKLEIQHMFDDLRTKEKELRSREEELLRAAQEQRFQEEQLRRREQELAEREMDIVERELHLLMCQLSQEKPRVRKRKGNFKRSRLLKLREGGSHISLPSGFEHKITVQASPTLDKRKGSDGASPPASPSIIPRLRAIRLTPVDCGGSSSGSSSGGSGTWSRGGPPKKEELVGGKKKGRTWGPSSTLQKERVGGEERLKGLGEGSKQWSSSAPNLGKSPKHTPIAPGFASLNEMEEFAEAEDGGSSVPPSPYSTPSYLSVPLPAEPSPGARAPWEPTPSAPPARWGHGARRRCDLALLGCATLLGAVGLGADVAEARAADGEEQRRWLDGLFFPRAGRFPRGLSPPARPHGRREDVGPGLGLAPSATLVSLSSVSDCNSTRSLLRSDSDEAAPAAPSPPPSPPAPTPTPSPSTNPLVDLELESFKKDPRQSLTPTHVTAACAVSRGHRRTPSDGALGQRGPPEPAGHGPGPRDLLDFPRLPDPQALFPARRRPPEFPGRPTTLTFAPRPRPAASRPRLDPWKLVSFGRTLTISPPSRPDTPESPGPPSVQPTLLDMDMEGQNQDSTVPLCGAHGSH
Sequence of Serine/threonine-protein kinase Sgk3 (Homo sapiens) (Q96BR1 whole entry): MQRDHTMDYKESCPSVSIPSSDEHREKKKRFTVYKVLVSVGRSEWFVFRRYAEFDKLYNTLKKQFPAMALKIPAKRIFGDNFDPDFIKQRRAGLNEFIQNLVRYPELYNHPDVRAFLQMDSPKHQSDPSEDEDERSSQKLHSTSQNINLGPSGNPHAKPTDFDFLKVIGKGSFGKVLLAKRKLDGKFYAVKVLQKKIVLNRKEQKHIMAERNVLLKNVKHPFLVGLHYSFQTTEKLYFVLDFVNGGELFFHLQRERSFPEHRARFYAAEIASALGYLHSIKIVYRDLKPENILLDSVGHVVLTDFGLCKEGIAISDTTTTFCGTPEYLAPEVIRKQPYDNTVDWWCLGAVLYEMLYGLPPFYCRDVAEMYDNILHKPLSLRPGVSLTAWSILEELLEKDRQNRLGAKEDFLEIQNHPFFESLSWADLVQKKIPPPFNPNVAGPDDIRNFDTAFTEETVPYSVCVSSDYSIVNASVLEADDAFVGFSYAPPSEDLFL

Cc1c(C(=O)O)cc(-c2ccc(C3CCNCC3)cc2)c2ccc(-c3ccc(C(F)(F)F)cc3)cc12 [PPTN-NC]
residual activity [1]: 100% | residual activity [2]: 100% | residual activity [3]: 100% | residual activity [4]: 100% | residual activity [5]: 100% | residual activity [6]: 100% | residual activity [7]: 100% | residual activity [8]: 100% | residual activity [9]: 97% | residual activity [10]: 100% | residual activity [11]: 100% | residual activity (Insulin receptor): 100% | residual activity [12]: 100% | residual activity [13]: 100% | residual activity [14]: 100% | residual activity [15]: 88% | residual activity [16]: 100% | residual activity [17]: 100% | residual activity [18]: 100% | residual activity [19]: 100% | residual activity [20]: 100% | residual activity [21]: 100% | residual activity [22]: 100% | residual activity [23]: 100% | inhibition [24]: 91.8% | residual activity [25]: 100% | residual activity [26]: 100% | residual activity [27]: 92% | residual activity [28]: 100% | residual activity [29]: 100% | residual activity [30]: 93% | residual activity [31]: 100% | residual activity [32]: 100% | residual activity [33]: 100% | residual activity [34]: 100% | residual activity [35]: 100% | residual activity [36]: 100% | residual activity [37]: 100% | residual activity [38]: 85% | residual activity [39]: 96% | residual activity [40]: 100% | residual activity [41]: 100% | residual activity [42]: 100% | residual activity [43]: 85% | inhibition [44]: 12.6%

O=C(O)c1cc(-c2ccc(C3CCNCC3)cc2)c2ccc(-c3ccc(C(F)(F)F)cc3)cc2c1 [PPTN]
residual activity [1]: 100% | residual activity [2]: 100% | residual activity [3]: 100% | residual activity [4]: 100% | residual activity [5]: 100% | residual activity [6]: 100% | residual activity [7]: 100% | residual activity [8]: 100% | residual activity [9]: 100% | residual activity [10]: 100% | residual activity [11]: 100% | residual activity (Insulin receptor): 100% | residual activity [12]: 100% | residual activity [13]: 100% | residual activity [14]: 100% | residual activity [15]: 100% | residual activity [16]: 100% | residual activity [17]: 100% | residual activity [18]: 100% | residual activity [19]: 100% | residual activity [20]: 100% | residual activity [21]: 100% | residual activity [22]: 100% | residual activity [23]: 100% | inhibition [24]: 84.9% | residual activity [25]: 100% | residual activity [26]: 100% | residual activity [27]: 94% | residual activity [28]: 100% | residual activity [29]: 100% | residual activity [30]: 100% | residual activity [31]: 100% | residual activity [32]: 93% | residual activity [33]: 100% | residual activity [34]: 82% | residual activity [35]: 86% | residual activity [36]: 100% | residual activity [37]: 100% | residual activity [38]: 100% | residual activity [39]: 85% | residual activity [40]: 100% | residual activity [41]: 100% | residual activity [42]: 100% | residual activity [43]: 72% | inhibition [44]: 19.3%
